Assay results reported in patent publication US20230293542A1, “SENSORY STIMULATING PSYCHOTROPIC DRUG” (KANSAI MEDICAL UNIVERSITY, priority 2020, published 2023).

Each compound was assayed on C57/BL6 mice (assay: Contextual fear conditioning 30 min after intraperitoneal administration (inhibition of fear memory formation), freezing behavior). Conditions: intraperitoneal 200 μl of 1 v/v % solution in saline, 30 min before conditioning; freezing for 10 min on day 1, no odor; compared with saline-administered group (=100%); n=6; FIG. 2-12.
Assay type: in vivo
Method: • Day 0: To about 2 month-old C57/BL6 mice was intraperitoneally administered 200 μl of saline, or 1 v/v % 2-methyl-2-thiazoline solution (dissolved in saline), or 1 v/v % 5-methylthiazole solution (dissolved in saline), or 1 v/v % 4-ethyl-2-methyl-2-thiazoline solution (dissolved in saline), or 1 v/v % 2,4,5-trimethyl-3-thiazoline solution (dissolved in saline), or 1 v/v % thiomorpholine solution (dissolved in saline), or 1 v/v % allyl isothiocyanate (AITC) solution (dissolved in saline), or 1 v/v % 2,3-diethylpyrazine solution (dissolved in saline), or 1 v/v % 2,6-lutidine solution (dissolved in saline) (each condition n=6). Thirty minutes after the administration, the mice were placed in an electric shock chamber, and 2-second electric shock (0.6 mA) was given 6 times at 2-minute intervals for 12 min for contextual fear conditioning. • Day 1: Mice were placed in the electric shock chamber (no odor) used for learning on the previous day, and freezing behavior was measured for 10 min using dedicated software (Freeze frame 2).
In addition, a student's t-test was performed between the saline-administered group and each compound-administered group (*p<0.05, ***p<0.001).
(§1) • Day 0: To about 2 month-old C57/BL6 mice was intraperitoneally administered 200 μl of saline or 1 v/v % 2-(allylthio)-2-thiazoline solution (dissolved in saline) (each condition n=6). Thirty minutes after the administration, the mice were placed in an electric shock chamber, and 2-second electric shock (0.6 mA) was given 6 times at 2-minute intervals for 12 min for contextual fear conditioning. • Day 1: Mice were placed in the electric shock chamber (no odor) used for learning on the previous day, and freezing behavior was measured for 10 min using dedicated software (Freeze frame 2).
A student's t-test was performed between the saline-administered group and the 2-(allylthio)-2-thiazoline-administered group (*p<0.05).
as §1, with “4-tert-butyl-2-methylthiazole” for “2-(allylthio)-2-thiazoline”
as §1, with “2-ethoxythiazole” for “2-(allylthio)-2-thiazoline”
as §1, with “2-methylbenzothiazole” for “2-(allylthio)-2-thiazoline”
• Day 0: To about 2 month-old 057/BL6 mice was intraperitoneally administered 200 μl of saline or 1 v/v % 2-mercaptothiazole solution (dissolved in saline) (each condition n=6). […]

Row | Structure (SMILES) | frequency of freezing behavior during the test (day 1)
1 | CCc1nccnc1CC [2,3-diethylpyrazine] | significant decrease
2 | CC1=NC(C)SC1C (centres unmarked) [2,4,5-trimethyl-3-thiazoline] | significant decrease
3 | Cc1cccc(C)n1 [2,6-lutidine] | significant decrease
4 | C=CCSC1=NCCS1 [2-(allylthio)-2-thiazoline] | significant decrease
5 | CC(=O)c1ccc[nH]1 [2-acetylpyrrole] | significant decrease
6 | NC1=NCCS1 [2-amino-2-thiazoline] | significant decrease
7 | CCOc1nccs1 [2-ethoxythiazole] | significant decrease
8 | Sc1nccs1 [2-mercaptothiazole] | significant decrease
9 | CC1=NCCS1 [2-methyl-2-thiazoline] | significant decrease
10 | Cc1nc2ccccc2s1 [2-methylbenzothiazole] | significant decrease
11 | Cc1nccs1 [2-methylthiazole] | significant decrease
12 | CC1CNCCS1 (centres unmarked) [2-methylthiomorpholine] | significant decrease
13 | CCC1CSC(C)=N1 (centres unmarked) [4-ethyl-2-methyl-2-thiazoline] | significant decrease
14 | Cc1nc(C(C)(C)C)cs1 [4-tert-butyl-2-methylthiazole] | significant decrease
15 | Cc1cncs1 [5-methylthiazole] | significant decrease
16 | C=CCN=C=S [AITC, allyl isothiocyanate] | significant decrease
17 | C=C(C)CN=C=S [methallyl isothiocyanate] | significant decrease
18 | C1CSCCN1 [thiomorpholine] | significant decrease

The compounds below were run on C57/BL6 mice (assay: Contextual fear conditioning in the presence of thiazoline-related fear odor (inhibition of fear memory formation), freezing behavior). Conditions: filter paper impregnated with 100 μl or 10 μl of 2MT during fear conditioning; freezing measured for 10 min on day 3 with Eugenol; compared to group that learned with no odor; FIG. 1.
Assay type: in vivo
Method: • Day 0: About 2-month-old C57/BL6 mice were placed in an electric shock chamber, and 2-second electric shock (0.6 mA) was given 6 times at 2-minute intervals for 12 min for contextual fear conditioning. Conditioning was performed under 4 conditions of no odor condition (control; n=6) (group 1) and an electric shock chamber with filter paper impregnated with 100 μl of 2-methyl-2-thiazoline (2MT) condition (2MT; n=6) (group 2), or no odor condition (control; n=6) (group 3) and an electric shock chamber with filter paper impregnated with 10 μl of 2-methyl-2-thiazoline (2MT) condition (2MT; n=6) (group 4). • Day 1: Mice were placed in the electric shock chamber (no odor) used for learning on the previous day, and freezing behavior was measured for 10 min using dedicated software (Freeze frame 2; ActiMetrics). • Day 3: The mice of group 1 and group 2 were placed in an electric shock chamber with filter paper impregnated with 100 μl of Eugenol, and freezing behavior was measured for 10 min. The mice in group 3 and group 4 were placed in an electric shock chamber with filter paper impregnated with 10 μl of Eugenol, and freezing behavior was measured for 10 min.
A student's t-test was also performed between the group with no odor and the group with 2MT (**p<0.01, ***p<0.001).

Row | Structure (SMILES) | freezing behavior in the context with odor (eugenol odor context; day 3)
19 | CC1=NCCS1 [2-methyl-2-thiazoline] | marked decrease

Same assay, conditions: filter paper impregnated with 100 μl or 10 μl of 2MT in electric shock chamber during fear conditioning; freezing measured for 10 min on day 1; compared to no odor group; FIG. 1

Row | Structure (SMILES) | freezing behavior in the no odor context (day 1)
20 | CC1=NCCS1 [2-methyl-2-thiazoline] | remarkably decreased
